Results as given in patent US20130281409A1, “Myelin Sheath Fatty Acids that Resolve Neuroinflammation” (priority 2012, published 2013).

Assays:
[1] = system: naive MBPAc1-11-TCR transgenic splenocytes; assay: MBPAc1-11-induced cytokine production by MBPAc1-11-TCR transgenic splenocytes; assay type: cell-based, mouse; conditions: 30 μg/ml lipid; for MBPAc1-11-induced IFN-γ production / MBPAc1-11-induced IL-6 production / MBPAc1-11-induced TNF production: 2 μg/ml MBPAc1-11, 48 hours
Experimental: (§1) Splenocytes were harvested from mice transgenic for the MBPAc1-11-specific T-cell receptor and stimulated with 2 μg/ml of MBPAc1-11 in the presence of 30 μg/ml of lipid. Lymph nodes and spleens were also harvested from naive C57BL/6 mice, and CD3^+ T-cell enrichment columns (R&D systems) were used to isolate CD3^+ T cells. […] Cytokine assays were performed on culture supernatants after 24 (IL-12p40) or 48 hours (IFN-γ, IL-6, and TNF) of culture by using the BD OptEIA™ Mouse ELISA kits (BD Biosciences).

[2] = system: splenocytes from PLP139-151-immunized SJL mice; assay: PLP139-151-induced proliferation of splenocytes of PLP139-151-immunized mice; assay type: cell-based, mouse; conditions: 30 μg/ml lipid, 48 hours
Experimental: PLP-stimulated cells from PLP139-151-immunized mice administered PGPC prophylactically: SJL/J mice were co-injected with PGPC and PLP139-151 in CFA and sacrificed 48 days later. Lymph node cells and splenocytes were then harvested and re-stimulated in vitro (2.5×10^6 cells/ml) with 10 μg/ml of PLP139-151 or with media alone. PLP-stimulated cells from untreated PLP139-151-immunized mice: SJL/J mice were immunized with PLP139-151 in CFA and sacrificed 10 days later. Splenocytes were then harvested and re-stimulated in vitro (at 5×10^5 cells/ml) with 10 μg/ml of PLP139-151 in the presence of 30 μg/ml of POPS, PGPC, azPC ester, or azPC.

CD3+ T cells = assay: Proliferation of anti-CD3/anti-CD28-stimulated purified T cells; assay type: cell-based, mouse; conditions: anti-CD3 or anti-CD3 and anti-CD28, 30 μg/ml lipid, 48 hours
Experimental: as §1, with “Biosciences). Cd1d^−/− T cells: We harvested splenocytes from Cd1d^−/− mice and their wild-type littermates and used CD3^+ T-cell enrichment columns (R&D systems) to isolate T cells. […] Anti-CD3/anti-CD28-stimulated purified T cells: We harvested lymph nodes and spleens from naive C57BL/6 mice and used CD3^+ T-cell enrichment columns (R&D systems) to isolate CD3^+ T cells.” for “Biosciences).”

[3] = system: CD3+ T cells (gated on CD4+ T cells); assay: T-cell apoptosis, Annexin V and 7AAD staining; assay type: cell-based, mouse; conditions: 30 μg/ml lipid, anti-CD3 and anti-CD28, 48 hours
Experimental: FIG. 5. […] (C) TUNEL staining of brain and spinal-cord tissue from mice immunized with PLP139-151 peptide (to induce EAE) and treated for 12 h with azPC, POPS, or vehicle on day 15 after immunization. […] (D) Quantification of TUNEL-positive infiltrating cells in brain and spinal cord shown in panel (C). Cells were stained according to standard protocols, run on a FACScan flow cytometer (BD Biosciences), and analysed with CellQuest software (BD Immunocytometry Systems). The antibody conjugate used was FITC anti-CD4, clone GK1.5 (BD Pharmingen). 7AAD staining was performed by using the Annexin V-PE Apoptosis Detection Kit I (BD Pharmingen). Cells were stained according to standard protocols, run on a FACScan flow cytometer (BD Biosciences), and analysed with CellQuest software (BD Immunocytometry Systems) or with FlowJo software version 6.3.2 (Tree Star, Inc.).

B cells = assay: Proliferation of anti-IgM F(ab')2/anti-CD40-stimulated purified B cells; assay type: cell-based, mouse; conditions: 30 μg/ml lipid, anti-IgM F(ab')2 and anti-CD40, 48 hours
Experimental: Anti-IgM F(ab′)2 fragment/anti-CD40-stimulated purified B cells: We harvested spleens from naive C57BL/6 mice and used a B-cell isolation kit (Miltenyi Biotec) to negatively isolate B cells. We then stimulated 5×10^5 cells/ml of B cells with 5 μg/ml of each of soluble anti-IgM F(ab′)2 fragment (Jackson ImmunoResearch) antibody and anti-CD40 antibody (eBioscience) in the presence of 30 μg/ml of POPS, PGPC, azPC ester, or azPC.

[4] = system: infiltrating cells in brain and spinal cord of mice with EAE; assay: TUNEL assay on brain and spinal cord of EAE mice; assay type: in vivo, mouse; conditions: 200 μg i.v. on day 15 after immunization
Experimental: Mice with EAE were treated intravenously with 200 μg of azPC, 200 μg of POPS, or vehicle (0.05% Tween-20 in PBS) on day 15 after immunization with CFA and PLP139-151 peptide. Mice were treated with lipids for 12, 24, or 48 hours and then sacrificed and perfused with 4% paraformaldehyde. Brains and spinal cords were embedded in paraffin and sectioned. TUNEL-positive cells were detected by using the In Situ Cell Death Kit, AP (Roche) according to the manufacturer's instructions.

Compound | MBPAc1-11-induced cytokine levels (cytokines not specified) ([1]; effects less dramatic than POPS and azPC) | PLP139-151-induced proliferation of splenocytes [2] | T-cell proliferation, wild-type and Cd1d−/− T cells (CD3+ T cells) | IL-12p40 production ([1]; 2 μg/ml MBPAc1-11, 24 hours) | MBPAc1-11-induced IFN-γ production [1] | MBPAc1-11-induced IL-6 production [1] | MBPAc1-11-induced TNF production [1] | increase in T-cell apoptosis [3] | proliferation of activated B cells (B cells) | number of TUNEL-positive cells with lymphocyte morphology in brain and spinal cord [4]
CCCCCCCCCCCCCCCC(=O)OC[C@H](COP(=O)([O-])OCC[N+](C)(C)C)OC(=O)CCCC(=O)O [PGPC, 1-Palmitoyl-2-Glutaroyl-sn-Glycero-3-Phosphocholine] | reduced levels of some of the cytokines | suppress | suppress T-cell proliferation independently of CD1d | – | – | – | – | – | – | –
CCCCCCCC/C=C\CCCCCCCC(=O)O[C@H](COC(=O)CCCCCCCCCCCCCCC)COP(=O)(O)OC[C@H](N)C(=O)O [POPS, 1-Palmitoyl-2-Oleoyl-sn-Glycero-3-[Phospho-L-Serine]] | – | suppress | suppress T-cell proliferation independently of CD1d | Neither POPS nor the oxidized phosphatidylcholine derivatives affected production | did not significantly reduce | reduced | reduced | > 5 fold | modestly suppressed proliferation | increased the number of TUNEL-positive cells
CCCCCCCCCCCCCCCC(=O)OC[C@H](COP(=O)([O-])OCC[N+](C)(C)C)OC(=O)CCCCCCCC(=O)O [azPC, 1-Palmitoyl-2-Azelaoyl-sn-Glycero-3-Phosphocholine] | – | suppress | suppress T-cell proliferation independently of CD1d | – | reduced | reduced | reduced | > 4 fold | modestly suppressed proliferation | increased the number of TUNEL-positive cells
